These results are taken from patent US20130035326A1 (AMBIT BIOSCIENCES CORPORATION, priority 2009, published 2013).

A word on the pKd: it is the Kd on a negative log10 scale, so that one unit is a factor of ten. A lower pKd goes with a large Kd. The pIC50 is the IC50 on a negative log10 scale, so that one unit is a factor of ten. Higher therefore signals a low IC50.

pIC50, pKd: −log10 of the molar value. Where only a bound is given, the exact number is not on record here.

One experiment addresses T1, CSF-1R kinase (Homo sapiens, UniProt P07333).
T1 construct: made in house; host or cells: T7 phage display or HEK-293 cells
In words: Competition binding assay, CSF-1R Kd. The method, boiled down:
(§1)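 Kd values derived from an eleven-point, threefold compound dilution series in a bead-based competition format: kinase (phage-fused or HEK-293-derived with DNA tag), ligand-coated streptavidin beads and compound equilibrated 1 h at room temperature. After washing, retained kinase was eluted with non-biotinylated ligand (0.5 μM) and measured by quantitative PCR.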

Experiment [1] concerns the target kinase panel containing either 359 or 386 distinct kinases. In words: Selectivity score S10 from competition binding against a panel of kinases. Conditions: compounds at 10 μM; for Kinase specificty: S(10)-386 panel: panel of 386 distinct kinases; for Kinase specificty: S(10)-359 panel: panel of 359 distinct kinases. The method, boiled down:
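Compounds were tested at 10 μM in competition binding against T7 phage-fused or HEK-293-expressed DNA-tagged kinases with immobilized affinity ligands, 1 h at room temperature. Bound kinase was quantified by qPCR as percent of DMSO control; S10 is the fraction of distinct kinases (mutants excluded) with POC below 10.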

For another experiment, the target named is T2, KIT kinase (Homo sapiens, UniProt P10721).
T2 construct: made in house; host or cells: T7 phage display or HEK-293 cells
Description: Competition binding assay, KIT Kd. The essentials:
as §1

Another experiment relates to MV4-11 cells. Description: MV4-11 cell proliferation assay (Alamar Blue). The class given is cell-based. The conditions noted are these: Homo sapiens, MV4-11, 72 h, 3 days incubation. The essentials: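 Viability readout: Alamar Blue fluorescence, ex 560/em 590 nm, 3 h after reagent addition, after 3-day exposure of 64,000 MV4-11 cells per well to a 9-point half-log compound series in 0.5% FBS Iscove's. IC50 from duplicate averages, as 50% proliferation inhibition relative to negative control.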
Background: Alamar Blue is a resazurin reagent that responds to reducing activity.

The target in a further experiment is T3, FLT3 kinase (Homo sapiens, UniProt P36888).
T3 construct: made in house; host or cells: T7 phage display or HEK-293 cells
T3 sequence (P36888 27-993): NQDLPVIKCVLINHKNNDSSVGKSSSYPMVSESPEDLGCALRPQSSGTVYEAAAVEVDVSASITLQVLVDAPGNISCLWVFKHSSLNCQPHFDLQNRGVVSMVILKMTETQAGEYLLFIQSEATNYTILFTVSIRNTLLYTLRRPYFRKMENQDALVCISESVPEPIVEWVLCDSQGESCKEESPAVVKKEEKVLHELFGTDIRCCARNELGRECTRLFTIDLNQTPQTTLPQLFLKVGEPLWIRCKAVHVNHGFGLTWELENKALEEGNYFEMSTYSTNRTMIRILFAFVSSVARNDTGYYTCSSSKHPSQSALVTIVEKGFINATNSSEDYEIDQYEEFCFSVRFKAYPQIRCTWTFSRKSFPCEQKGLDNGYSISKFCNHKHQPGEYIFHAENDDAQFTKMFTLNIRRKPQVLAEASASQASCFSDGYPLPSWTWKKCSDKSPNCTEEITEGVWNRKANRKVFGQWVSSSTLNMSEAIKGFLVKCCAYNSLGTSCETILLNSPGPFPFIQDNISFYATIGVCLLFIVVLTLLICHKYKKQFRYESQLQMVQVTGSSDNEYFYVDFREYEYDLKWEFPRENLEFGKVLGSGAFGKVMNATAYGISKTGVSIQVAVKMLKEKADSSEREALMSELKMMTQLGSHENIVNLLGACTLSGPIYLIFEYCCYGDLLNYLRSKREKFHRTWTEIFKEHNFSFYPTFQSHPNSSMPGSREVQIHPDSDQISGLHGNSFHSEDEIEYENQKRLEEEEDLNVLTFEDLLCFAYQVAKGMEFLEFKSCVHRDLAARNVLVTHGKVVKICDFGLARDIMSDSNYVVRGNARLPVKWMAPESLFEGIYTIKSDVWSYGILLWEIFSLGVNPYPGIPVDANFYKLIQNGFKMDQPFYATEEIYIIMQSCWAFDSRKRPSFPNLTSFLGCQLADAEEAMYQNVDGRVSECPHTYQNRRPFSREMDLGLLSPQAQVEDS
In words: Competition binding assay, FLT3 Kd. The method, boiled down:
as §1

T2 sequence (P10721 26-976): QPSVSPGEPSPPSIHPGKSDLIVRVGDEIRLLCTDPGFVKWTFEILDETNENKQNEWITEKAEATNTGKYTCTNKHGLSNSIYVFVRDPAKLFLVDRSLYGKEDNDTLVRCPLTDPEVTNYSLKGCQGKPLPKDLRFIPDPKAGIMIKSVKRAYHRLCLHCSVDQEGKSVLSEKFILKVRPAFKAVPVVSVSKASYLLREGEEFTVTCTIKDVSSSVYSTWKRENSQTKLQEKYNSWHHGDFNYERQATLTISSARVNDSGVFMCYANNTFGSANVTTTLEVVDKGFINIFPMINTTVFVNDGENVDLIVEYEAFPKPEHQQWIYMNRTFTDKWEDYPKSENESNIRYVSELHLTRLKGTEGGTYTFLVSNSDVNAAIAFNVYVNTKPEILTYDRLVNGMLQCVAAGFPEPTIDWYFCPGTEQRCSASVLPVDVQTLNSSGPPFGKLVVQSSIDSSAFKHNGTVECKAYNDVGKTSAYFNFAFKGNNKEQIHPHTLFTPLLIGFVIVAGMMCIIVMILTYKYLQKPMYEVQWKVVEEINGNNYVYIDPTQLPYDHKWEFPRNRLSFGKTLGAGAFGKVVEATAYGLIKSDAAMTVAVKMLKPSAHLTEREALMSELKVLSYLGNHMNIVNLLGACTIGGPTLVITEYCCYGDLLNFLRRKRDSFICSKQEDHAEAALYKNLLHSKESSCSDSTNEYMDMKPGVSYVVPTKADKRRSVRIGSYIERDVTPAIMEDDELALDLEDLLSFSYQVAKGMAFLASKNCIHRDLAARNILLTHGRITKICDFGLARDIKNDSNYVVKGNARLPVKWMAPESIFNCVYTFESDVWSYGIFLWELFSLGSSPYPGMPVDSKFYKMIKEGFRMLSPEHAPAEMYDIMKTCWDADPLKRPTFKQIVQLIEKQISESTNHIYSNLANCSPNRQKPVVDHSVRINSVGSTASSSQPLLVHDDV
T1 sequence (P07333 20-972): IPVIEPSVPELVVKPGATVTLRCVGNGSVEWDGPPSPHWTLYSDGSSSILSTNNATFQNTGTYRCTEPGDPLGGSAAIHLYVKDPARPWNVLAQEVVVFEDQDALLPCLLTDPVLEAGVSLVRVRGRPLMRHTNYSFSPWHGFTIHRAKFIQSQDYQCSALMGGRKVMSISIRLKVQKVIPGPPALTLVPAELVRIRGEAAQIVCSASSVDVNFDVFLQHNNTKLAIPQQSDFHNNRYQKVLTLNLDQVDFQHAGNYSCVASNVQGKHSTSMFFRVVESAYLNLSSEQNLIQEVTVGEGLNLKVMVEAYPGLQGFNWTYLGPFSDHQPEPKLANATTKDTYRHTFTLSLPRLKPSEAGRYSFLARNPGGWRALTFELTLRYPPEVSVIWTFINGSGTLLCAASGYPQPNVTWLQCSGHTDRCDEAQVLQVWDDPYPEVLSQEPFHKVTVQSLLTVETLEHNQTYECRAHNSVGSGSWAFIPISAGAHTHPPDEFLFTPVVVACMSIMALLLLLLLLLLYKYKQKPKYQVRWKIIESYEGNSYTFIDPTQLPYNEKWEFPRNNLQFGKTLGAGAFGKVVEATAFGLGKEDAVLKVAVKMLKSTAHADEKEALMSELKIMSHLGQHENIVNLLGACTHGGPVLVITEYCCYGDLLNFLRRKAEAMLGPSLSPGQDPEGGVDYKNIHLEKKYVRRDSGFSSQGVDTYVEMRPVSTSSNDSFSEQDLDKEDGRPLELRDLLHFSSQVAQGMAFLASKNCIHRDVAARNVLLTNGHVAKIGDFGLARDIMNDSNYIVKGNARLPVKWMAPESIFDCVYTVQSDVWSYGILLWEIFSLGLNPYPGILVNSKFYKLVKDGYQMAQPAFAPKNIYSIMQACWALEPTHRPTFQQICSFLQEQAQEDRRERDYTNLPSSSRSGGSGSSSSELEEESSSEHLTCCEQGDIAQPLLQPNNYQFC

As for `CC(C)(C)c1cc(NC(=O)Nc2ccc(-c3ccc(NCCN4CCC(F)(F)CC4)nc3)cc2)no1.CS(=O)(=O)O` [Example 107, 1-(2-((5-(4-(3-(5-(tert-butyl)isoxazol-3-yl)ureido)phenyl)pyridin-2-yl)amino)ethyl)-4,4-difluoropiperidin-1-ium methanesulfonate], the figures for the pKd at CSF-1R kinase, on KIT kinase and at FLT3 kinase were ≥ 8.00, 8.00 to 9.00 and ≥ 9.00, respectively. Moreover, in experiment [1], the “Kinase specificty: S(10)-386 panel” value was “A (A≦0.1)”. In the experiment on MV4-11 cells, this molecule had a pIC50 of 8.00 to 9.00.
For `Nc1ncc(-c2ccc(NC(=O)Cc3cccc(C(F)(F)F)c3)cc2)cn1` [Example 46, N-(4-(2-aminopyrimidin-5-yl)phenyl)-2-(3-(trifluoromethyl)phenyl)acetamide], the results for the negative logarithm of the Kd (pKd) at CSF-1R kinase, at KIT kinase and at FLT3 kinase were 7.00 to 8.00, ≥ 9.00 and 8.00 to 9.00, respectively. For the same molecule, the “Kinase specificty: S(10)-359 panel” value in experiment [1] is recorded as “A (A≦0.1)”. The molecule also showed a pIC50 with MV4-11 cells of 7.00 to 8.00.
On to `CNc1ccc(-c2ccc(CC(=O)Nc3cc(C(C)(C)C)on3)cc2)cn1.CS(=O)(=O)O` [Example 110, 5-(4-(2-(5-tert-butylisoxazol-3-ylamino)-2-oxoethyl)phenyl)-N-methylpyridin-2-aminium methanesulfonate], for which the negative logarithm of the Kd (pKd) was ≥ 8.00 at CSF-1R kinase, 8.00 to 9.00 on KIT kinase and ≥ 9.00 on FLT3 kinase. The “Kinase specificty: S(10)-386 panel” value in experiment [1] was “B (0.1<B≦0.2 nM)”. In the experiment on MV4-11 cells, the pIC50 was ≥ 9.00.
Regarding `O=C(Nc1ccc(-c2cnc(NCCN3CCOCC3)nc2)cc1)Nc1cccc(C(F)(F)F)c1` [Example 54, 1-(4-(2-(2-morpholinoethylamino)pyrimidin-5-yl)phenyl)-3-(3-(trifluoromethyl)phenyl)urea], the pKd is ≥ 8.00 on CSF-1R kinase, ≥ 9.00 at KIT kinase and ≥ 9.00 on FLT3 kinase. Besides, the “Kinase specificty: S(10)-359 panel” value in experiment [1] is “A (A≦0.1)”. The pIC50 in the experiment on MV4-11 cells was 7.00 to 8.00.
In the case of `CC1(c2cc(NC(=O)Cc3ccc(-c4ccc(N)nc4)cc3)no2)COC1.CS(=O)(=O)O` [Example 99, 5-(4-(2-((5-(3-methyloxetan-3-yl)isoxazol-3-yl)amino)-2-oxoethyl)phenyl)pyridin-2-aminium methanesulfonate], the pKd on CSF-1R kinase was ≥ 8.00; at KIT kinase, 8.00 to 9.00; at FLT3 kinase it was ≥ 9.00. In experiment [1], the “Kinase specificty: S(10)-386 panel” value is recorded as “A (A≦0.1)”. In addition, the pIC50 in the experiment with MV4-11 cells was 8.00 to 9.00.
As to `Cc1nc(N)cnc1-c1ccc(CC(=O)Nc2cc(C(C)(C)C)on2)cc1` [Example 165], the negative-log Kd (pKd) at CSF-1R kinase was 7.00 to 8.00; at KIT kinase, 8.00 to 9.00; on FLT3 kinase, ≥ 9.00. Moreover, the “Kinase specificty: S(10)-386 panel” value in experiment [1] is reported as “A (A≦0.1)”. In addition, the pIC50 in the experiment on MV4-11 cells is 7.00 to 8.00.
Take `CC(C)(F)c1cc(NC(=O)Cc2ccc(-c3ccc(NCCN4CCOCC4)nc3)cc2)on1` [Example 118, N-(3-(2-fluoropropan-2-yl)isoxazol-5-yl)-2-(4-(6-(2-morpholinoethylamino)pyridin-3-yl)phenyl)acetamide]: the pKd at CSF-1R kinase is ≥ 8.00; on KIT kinase, ≥ 9.00; on FLT3 kinase it was ≥ 9.00. In addition, the “Kinase specificty: S(10)-386 panel” value in experiment [1] is given as “A (A≦0.1)”. Also, in the experiment on MV4-11 cells, the pIC50 is 7.00 to 8.00.
Turning to `CC(CF)(CF)c1cc(NC(=O)Nc2ccc(-c3cnc(NCCN4CCOCC4)nc3)cc2)no1` [Example 52, 1-[5-(2-fluoro-1-fluoromethyl-1-methylethyl)isoxazol-3-yl]-3-{4-[2-(2-morpholin-4-yl-ethylamino)pyrimidin-5-yl]phenyl}urea], the pKd was ≥ 8.00 on CSF-1R kinase, ≥ 9.00 at KIT kinase and ≥ 9.00 at FLT3 kinase. In addition, the “Kinase specificty: S(10)-359 panel” value in experiment [1] was “B (0.1<B≦0.2 nM)”. The pIC50 with MV4-11 cells is 8.00 to 9.00.
In the case of `CC1(c2cc(NC(=O)Cc3ccc(-c4cnc(N)c(Cl)c4)cc3)no2)CC1` [Example 160], the negative-log Kd (pKd) was ≥ 8.00 on CSF-1R kinase, ≥ 9.00 on KIT kinase and ≥ 9.00 on FLT3 kinase. Also, the “Kinase specificty: S(10)-386 panel” value in experiment [1] is “B (0.1<B≦0.2 nM)”. The pIC50 with MV4-11 cells is ≥ 9.00.
In the case of `CC(C)(C)c1cc(NC(=O)Nc2ccc(-c3ccc(N)nc3)cn2)no1` [Example 17, 1-(6′-amino-[3,3′]bipyridinyl-6-yl)-3-(5-tert-butylisoxazol-3-yl)urea], the figures for the pKd at CSF-1R kinase, at KIT kinase and at FLT3 kinase were ≥ 8.00, ≥ 9.00 and ≥ 9.00, respectively. Besides, the “Kinase specificty: S(10)-359 panel” value in experiment [1] is reported as “A (A≦0.1)”. In addition, the pIC50 in the experiment with MV4-11 cells is 8.00 to 9.00.
On to `CC1(c2cc(NC(=O)Nc3ccc(-c4ccc(N)nc4)cc3)no2)CC1(F)F.CS(=O)(=O)O` (stereo not shown) [Example 112, 5-(4-(3-(5-(2,2-difluoro-1-methylcyclopropyl)isoxazol-3-yl)ureido)phenyl)pyridin-2-aminium methanesulfonate], for which the values for the negative logarithm of the Kd (pKd) on CSF-1R kinase, on KIT kinase and at FLT3 kinase were ≥ 8.00, 8.00 to 9.00 and ≥ 9.00, respectively. In addition, the “Kinase specificty: S(10)-386 panel” value in experiment [1] is on record as “A (A≦0.1)”. For the same molecule, the pIC50 in the experiment with MV4-11 cells was 8.00 to 9.00.
Consider `CS(=O)(=O)O.Nc1ccc(-c2ccc(CC(=O)Nc3cc(C4CCC4)no3)cc2)cn1` [Example 143, 5-(4-(2-((3-cyclobutylisoxazol-5-yl)amino)-2-oxoethyl)phenyl)pyridin-2-aminium methanesulfonate], for which the pKd was ≥ 8.00 at CSF-1R kinase, ≥ 9.00 on KIT kinase and ≥ 9.00 on FLT3 kinase. Besides, the “Kinase specificty: S(10)-386 panel” value in experiment [1] is given as “A (A≦0.1)”. The pIC50 with MV4-11 cells is 8.00 to 9.00.
As to `CC(C)(C)c1cc(NC(=O)Nc2ccc(-c3cnc4c(c3)OCCN4)cc2)no1` [Example 4, 1-(5-tert-butylisoxazol-3-yl)-3-(4-(3,4-dihydro-2H-pyrido[3,2-b][1,4]oxazin-7-yl)phenyl)urea], the pKd on CSF-1R kinase is ≥ 8.00; on KIT kinase, 8.00 to 9.00; on FLT3 kinase, 8.00 to 9.00. In addition, the “Kinase specificty: S(10)-359 panel” value in experiment [1] is given as “B (0.1<B≦0.2 nM)”. The molecule also had a pIC50 in the experiment on MV4-11 cells of 8.00 to 9.00.
For `CC1(CCNc2ccc(-c3ccc(CC(=O)Nc4cc(C(C)(C)C)on4)cc3)cn2)COC1` [Example 122, N-(5-tert-butylisoxazol-3-yl)-2-(4-(6-(2-(3-methyloxetan-3-yl)ethylamino)pyridin-3-yl)phenyl)acetamide], the figures for the negative logarithm of the Kd (pKd) on CSF-1R kinase, on KIT kinase and at FLT3 kinase were 6.30 to 7.00, 7.00 to 8.00 and 8.00 to 9.00, respectively. In addition, in experiment [1], the “Kinase specificty: S(10)-386 panel” value is reported as “A (A≦0.1)”. The negative-log IC50 (pIC50) with MV4-11 cells was 7.00 to 8.00.
In the case of `CC(C)(C)c1cc(NC(=O)Nc2ccc(-c3cnc(N)c(C#N)c3)cc2)no1` [Example 2, 1-[4-(6-amino-5-cyanopyridin-3-yl)-phenyl]-3-(5-tert-butylisoxazol-3-yl)urea], the pKd at CSF-1R kinase was ≥ 8.00; on KIT kinase it was 8.00 to 9.00; at FLT3 kinase, ≥ 9.00. In addition, the “Kinase specificty: S(10)-359 panel” value in experiment [1] was “B (0.1<B≦0.2 nM)”. Also, the pIC50 with MV4-11 cells is ≥ 9.00.
Consider `CC(C)(C)c1cc(NC(=O)Nc2cc(F)c(-c3ccc(N)nc3)cc2F)no1` [Example 20, 1-(4-(6-aminopyridin-3-yl)-2,5-difluorophenyl)-3-(5-tert-butylisoxazol-3-yl)urea], for which the pKd at CSF-1R kinase was ≥ 8.00; at KIT kinase, 8.00 to 9.00; on FLT3 kinase, ≥ 9.00. For the same molecule, the “Kinase specificty: S(10)-359 panel” value in experiment [1] is “B (0.1<B≦0.2 nM)”. The molecule further had a pIC50 with MV4-11 cells of 8.00 to 9.00.
Turning to `CC(C)(F)c1cc(NC(=O)Cc2ccc(-c3ccc(N)nc3)cc2)on1.CS(=O)(=O)O` [Example 101, 5-(4-(2-(3-(2-fluoropropan-2-yl)isoxazol-5-ylamino)-2-oxoethyl)phenyl)pyridin-2-aminium methanesulfonate], the negative logarithm of the Kd (pKd) was ≥ 8.00 on CSF-1R kinase, ≥ 9.00 at KIT kinase and ≥ 9.00 at FLT3 kinase. The “Kinase specificty: S(10)-386 panel” value in experiment [1] is “A (A≦0.1)”. The molecule further gave a pIC50 in the experiment with MV4-11 cells of 8.00 to 9.00.
